Here are results for 88 compounds from a melting point compilation (Tetko et al.; mined from patent text by program, amines drawn as free bases though some values may be those of a salt).

Bounds are passed on as bounds.

Turning to `Cn1c(C(F)(F)F)ccc(-c2cc(S(C)=O)c(Cl)cc2F)c1=O` (stereo not drawn), the melting point (commonly the temperature, or range, at which the solid turns liquid) is 147 to 148 °C.

With `O=C(CCl)c1cc2c(s1)SCCc1cc(=O)n(-c3ccc(Cl)cc3)nc1-2`, the melting point was in the range of 178 to 180 °C.

As to `ONCC1CCCCC1`, the melting point was in the range of 61 to 63 °C.

Compound `Nc1ccc(N2CCCC2)c(S(=O)(=O)O)c1` came in with a melting point of 255 to 256 °C.

Regarding `O=c1[nH]c(=O)n(CCCCN2CCC(OC(c3ccccc3)c3ccccc3)CC2)c2cc(Cl)ccc12`, the melting point is 169 to 171 °C.

As for `CC(=S)O/C=C\n1nnnc1C`, the melting point was in the range of 135 to 137 °C.

Take `CC(C)C(NC(=O)Cn1cccc(NC(=O)Cc2ccccc2)c1=O)C(=O)C(F)(F)F` (stereo not drawn): the melting point lay in the range of 70 to 72 °C.

Compound `CCC(=S)Nc1c(SC(F)(F)F)c(C#N)nn1-c1c(Cl)cc(C(F)(F)F)cc1SC` displayed a melting point of 153 to 155 °C.

In turn, `NC(=O)NCCNc1n[nH]c2ncnc(Nc3cccc(Cl)c3)c12` registered a melting point of 212 to 214 °C.

As to `CCCCn1ccc(Cc2cnc(N[N+](=O)[O-])[nH]c2=O)cc1=O`, the melting point was in the range of 198 to 201 °C.

The compound `COc1ccc(C=NCC(OC)OC)cc1OC` registered a melting point of 50 to 52 °C.

In the case of `Cc1ccc2c(Cl)cc(Cl)c(OCC#N)c2n1`, the melting point lay in the range of 157 to 158 °C.

The compound `CNC(=O)[C@@H](NC(=O)[C@@H](CC(=O)O)n1ccc(-c2ccc(C#N)cc2)c1)C(C)(C)C` returned a melting point of 138 to 140 °C.

The compound `COc1cc(-c2cccc(Cl)c2)c2cc(C(O)(c3ccc(Cl)cc3)c3nnc(S)n3C)ccc2n1` (stereo not drawn) came in with a melting point above 260 °C.

The compound `COC(=O)C(Oc1ccc(Cl)cc1)c1ccc(Oc2ccc(S(C)(=O)=O)cc2)cc1` (stereo not drawn) yielded a melting point of 182 to 183 °C.

The compound `CC(C)c1ccc(N(Cc2ccc(N(C)C)cc2)C(=S)C2CCCc3ccccc32)cc1` (stereo not drawn) gave a melting point of 123 to 125 °C.

On to `COC(=O)c1ccc(C(=O)Nc2ccc3c(c2)C(C)(C)CCC3(C)C)nc1`, for which the melting point was 176 to 177 °C.

Take `COC(=O)c1ccc(SCc2c(O[C@H](Cn3ccnc3)c3ccccc3)ccc3c2CCCC3=O)cc1`: the melting point came to 75 °C.

In turn, `CCCCCSCCSCCSCCCCC` yielded a melting point below 50 °C.

Turning to `COc1c(Cl)cc(C(=O)Nc2c(Cl)cncc2Cl)c2c3ccccc3n(CC3CCCCC3)c12`, the melting point fell in the range of 247 to 249 °C.

Take `O=C(O)c1cccc(NC(=O)C(CS)Cc2ccc(F)cc2F)c1` (stereo not drawn): the melting point lay in the range of 168 to 170 °C.

`O=C1C(=O)c2ccccc2C2=C1SCC1(CCN(S(=O)(=O)c3c(Cl)nc4sccn34)CC1)O2` came in with a melting point of 265 to 267 °C.

In the case of `COc1cccc(-c2nc3n(n2)Cc2cc(Cl)ccc2-3)c1`, the melting point was 229 to 230 °C.

In the case of `COC(=O)C1C(c2cccc([N+](=O)[O-])c2)C(C(=O)OC(C)C)=C(C)NC1(O)c1ccccc1` (stereo not drawn), the melting point was 134 to 135 °C.

`O=C(c1ccc(Cl)cc1)c1ccc2c(c1)C(c1cccc(Cl)c1)=NCc1nnnn1-2` registered a melting point of 220 °C.

Take `CC1(C)COC(c2ccccc2)(c2ccc(N)c([N+](=O)[O-])c2)OC1`: the melting point is 140 °C.

Consider `COc1cc2nc(N3CCN(c4ccc(Cl)nn4)CC3)nc(N)c2cc1OC`, for which the melting point is 269 to 270 °C.

Compound `COc1ccc(-c2nc(C)c(NC(=O)c3nnn[nH]3)s2)cc1` gave a melting point of 205 to 207 °C.

`CCCCCS(=O)(=O)NC(=O)OCc1ccc(OS(=O)(=O)CCC)cc1Oc1ncc(C(F)(F)F)cc1Cl` came in with a melting point of 86 to 89 °C.

Compound `C=CCOc1cc(-n2c(OCC)nc(C(F)(F)F)cc2=O)c(F)cc1Br` gave a melting point of 68 to 70 °C.

As for `CC(=O)N1CCC(c2nn(-c3ccccc3)c3cc(Cl)ccc23)CC1`, the melting point lay within 130 to 132 °C.

For `O=C(CC1CCCC1)c1c(-c2ccc3c(Br)c(OCc4nnn[nH]4)ccc3c2)oc2ccccc12`, the melting point lay within 186 to 187 °C.

Compound `CC1Cc2cc3c(cc2C(c2ccc([N+](=O)[O-])cc2)=NN1C1=NC(=O)CS1)OCO3` (stereo not drawn) registered a melting point of 218 to 220 °C.

Compound `O=C1NC(=O)c2c1cc1ccc3c(c1c2-c1cccnc1)OCO3` registered a melting point of 323 to 325 °C.

`CC1(C)CCC(C)(C)c2cc(N(CCCCOCc3ccccc3)C(=O)Nc3ccc(C(=O)O)cc3)ccc21` yielded a melting point of 158 to 162 °C.

With `Nc1nc2ccccc2c2c1nc(CO)n2CC1CCOCC1`, the melting point was 239 to 241 °C.

Take `CCOC(=O)c1[nH]c2ccc(Cl)cc2c1S(=O)(=O)c1ccccc1`: the melting point lay in the range of 201 to 202 °C.

`Cn1cnc(COc2nn3c(-c4ccccc4F)nnc3cc2C2(C)CCC(F)(F)CC2)n1` yielded a melting point of 193 °C.

Regarding `CCCC(=O)Nc1n[nH]c2cc(-c3ccc(OC)cc3)ccc12`, the melting point was 210 °C.

In turn, `CC(Cl)(Cl)C(NC(=O)c1ccc(Cl)cc1)NC(=NC#N)Nc1ccc(C(F)(F)F)nc1` (stereo not drawn) gave a melting point of 204 to 205 °C.

Regarding `CCc1nc2c(N)nc(C)c(C)c2n1NC1CCCCC1`, the melting point was in the range of 190 to 192 °C.

`COc1ccc(CCN(C)CCCCc2ccc(NC(=O)c3cccc4c(=O)c5ccccc5oc34)cc2)cc1OC` had a melting point of 102 °C.

In turn, `COc1ccc2c(C(=O)O)cn(C(C)C)c2c1` displayed a melting point of 162 to 163 °C.

The compound `CCn1c2c(c3ccccc31)=CC(=C1c3ccccc3-c3ccccc31)CC=2` registered a melting point of 172 °C.

Compound `C[C@](O)(COc1ccc(Cl)c(F)c1)C(=O)Nc1ccc(C#N)c(C(F)(F)F)c1` registered a melting point of 132 to 134 °C.

Compound `CCOC(=O)c1cn2c3c(ccc(OC)c3c1=O)OCC2C` (stereo not drawn) yielded a melting point of 165 to 168 °C.

With `Cc1cc2c(O)nccc2s1`, the melting point was 214 to 216 °C.

For `CC(C)(C)OC(=O)NCC(=O)N1[C@@H](C(=O)OC(C)(C)C)CC[C@H]1c1ccccc1` (racemic), the melting point stood at 112 °C.

As to `c1ccc2c(c1)CNc1cccnc1O2`, the melting point lay in the range of 172 to 174 °C.

Take `CCOC(=O)C(NC(=O)CC(=O)C=Cc1ccccc1[N+](=O)[O-])C(C)C` (stereo not drawn): the melting point was 106 to 107 °C.

The compound `CCOCc1nc2c(N)nc3ccccc3c2n1CCOCCNC(=O)N1CCOCC1` showed a melting point of 178 to 181 °C.

The compound `Cc1ccc2[nH]c(C(=O)OC(C)C)c(Sc3ccc(Cl)cc3)c2c1` yielded a melting point of 172 to 174 °C.

The compound `CC(=O)N1CCc2cc(C(=O)CCCN3CCC(c4noc5cc(F)ccc45)CC3)sc2C1` came in with a melting point of 145 to 147 °C.

Compound `CS(=O)(=O)NCCn1nccc1-c1ccc(Oc2ccc(F)cc2)cc1` showed a melting point of 96 to 98 °C.

As to `COC(=O)c1sc2cncc(Oc3ccc(Cl)cc3)c2c1N`, the melting point lay within 194 to 196 °C.

The compound `CCNC(=O)Nc1nc2nc(NCCCN3CCN(C)CC3)ncc2cc1-c1c(Cl)cccc1Cl` had a melting point of 82 to 90 °C.

On to `NCC1Cc2cc(Cl)cc(-c3cc(Cl)ccc3Cl)c2O1` (stereo not drawn), for which the melting point fell in the range of 160 to 162 °C.

`Cc1ccc(NC(=O)N[C@]2(C3CCCCC3)N=Cc3ccccc3N(C)C2=O)cc1Nc1nnn[nH]1` yielded a melting point of 190 to 193 °C.

With `CCOC(=O)c1cc(=O)c(-c2ccc(OC)cc2)co1`, the melting point was in the range of 121 to 123 °C.

`COc1ccc(C(=O)Cc2c(Cl)cncc2Cl)c2c1OC(C)(C)C2` had a melting point of 127 to 131 °C.

On to `COC(=O)c1cc(N2CCN([C@H]3CC[C@@H](c4cn(C)c5ccc(C#N)cc54)CC3)CC2)c2ncccc2c1`, for which the melting point was in the range of 153 to 155 °C.

Take `NN(Cc1ccccc1)C(=S)Nc1ccccc1`: the melting point was in the range of 121 to 123 °C.

The compound `CC(=O)N1CCC2(CC1)Cc1ccccc1O2` came in with a melting point of 94 to 97 °C.

Compound `CCOc1cccc2cc(C(=O)c3cc(OC)ccc3OC)oc12` came in with a melting point of 55 to 57 °C.

Consider `O=C(O)Cc1ccc2c(c1)sc1cc(Cl)ccc12`, for which the melting point lay within 198 to 200 °C.

The compound `Cc1cc(C2(C(F)(F)F)CC(c3ccc(Cl)cc3)=NO2)ccc1N` (stereo not drawn) returned a melting point of 118 to 119 °C.

For the compound `CCN(CC)c1cc2c(cc1C)Nc1c(cc(NC(C)=O)c3ncn(C)c13)O2`, the melting point was 217 to 218 °C.

Turning to `COc1ccc(C(=O)c2ccc(OCc3ccccc3)cc2)c(O)c1`, the melting point lay within 124 to 125 °C.

Turning to `CN1C(=O)C(C(=O)Nc2ccc(Oc3ccc(C(F)(F)F)cn3)cc2)C(=O)N(C)C1=O`, the melting point is 180 to 181 °C.

Regarding `CC(C)c1nn(-c2ccc(C(F)(F)F)cc2)cc1CO`, the melting point is 84 to 85 °C.

The compound `CC(C)(CCn1ccnc1)NCC(O)c1ccc(O)c(CO)c1` (stereo not drawn) returned a melting point of 135 to 137 °C.

For the compound `N#Cc1cc(C=O)cnc1Br`, the melting point lay within 105 to 106 °C.

In the case of `CCCCCOC(=O)Cc1nc(-c2ccccc2)oc1-c1ccsc1`, the melting point was 61 to 62 °C.

With `O=c1cc(OCc2cccc(Cl)c2)ccn1Cc1ccccc1`, the melting point lay within 95.5 to 95.7 °C.

`FC(F)(F)c1cc2ccccc2[nH]1` had a melting point of 102 °C.

In turn, `Clc1cccc(Oc2ccc(OCc3ccc(Br)s3)cc2)n1` displayed a melting point of 78 to 80 °C.

Regarding `CCC(SCC(=O)O)c1cc2c(cc1C)OCO2` (stereo not drawn), the melting point was 98 to 99 °C.

`C=CC(O)C1=C(C)C(=NO)CCC1(C)C` (stereo not drawn) returned a melting point of 138 to 142 °C.

As for `c1ccc(COc2ccc3c(C45CC6CC(CC(C6)C4)C5)noc3c2)cc1`, the melting point is 132 °C.

`CC(=O)N1CCN(c2ccc(C3CCS(=O)(=O)NC3)cc2)CC1` (stereo not drawn) had a melting point of 196 to 197 °C.

Turning to `CC(C)(C)OC(=O)NCCNC(=O)c1cccc(Cl)n1`, the melting point lay in the range of 114 to 115 °C.

`Cn1nc(NC2c3cc(C#N)ccc3OC(C)(C)C2O)ccc1=O` (stereo not drawn): the melting point lay in the range of 117 to 119 °C.

In turn, `CCCC(c1ccc(C)cc1)n1cncc1C(=O)OC` (stereo not drawn) had a melting point of 141 to 143 °C.

Compound `COC(=O)CCSc1c(C(N)=O)sc2ccc(OC)cc12` displayed a melting point of 142 to 144 °C.

`CC(C)(C(N)=O)C(O)(Cn1cncn1)c1ccc(Cl)cc1Cl` (stereo not drawn): the melting point was in the range of 162 to 163 °C.

Regarding `Cc1ccc(O)c(-c2csc(N(C)C)n2)c1`, the melting point lay within 108 to 110 °C.

For the compound `CC(=O)OCC1CC(OC(C)=O)C(n2cc(C(Cl)=CI)c(=O)[nH]c2=O)O1` (stereo not drawn), the melting point lay in the range of 87 to 89 °C.

`CN1CCC(O)(c2cc3ccccc3s2)CC1` returned a melting point of 161 to 163 °C.
